The nature of series [1]: Metabolic stability in human liver microsomes. The class given is in vitro ADME. The text has this: (§1) In vitro data of metabolic stability and protein binding as well as in vivo pharmacokinetic data for compounds of the invention can be generated using the techniques disclosed in, e.g., Obach, R. S. et al., J. Pharmacol. Exp. Ther. 283(1): 46-58 (1997), which is hereby incorporated by reference in its entirety. Various biological, pharmacokinetic and other properties of the compounds, including hepatic microsomal stability, determination of metabolites, binding to proteins such as plasma protein binding, and in vivo studies, including single-dose and multi-dose pharmacokinetic studies, can be determined using the protocols described in that publication and the publications cited therein. Other aspects and advantages of the present invention will become apparent from the above detailed description, as illustrated by way of example of the principles of the invention. The scope of the invention is to be defined by the claims appended hereto and their equivalents. Selected pharmacokinetic studies in vitro and in vivo in rats were performed for preferred compounds, for example EXAMPLE-128 and compared with two reference compounds ML218 and Z944 by a contract research organization (BioDuro, Inc., San Diego, US). Tables 3A and 3B summarize some of the in vitro and vivo pharmacodynamic and pharmacokinetic parameters, respectively.

A short description of series [2]: Plasma protein binding, rat. Format: in vitro ADME. The conditions noted are these: for fraction unbound: read-out: PPB % (Rat) (converted).
Source text: as §1

The next series relates to DRG ion channels Na+. The series is described as follows: Sodium currents in DRG neurons, patch clamp. The conditions noted are these: Table 2. Format: cell-based, rodent. The procedure: (§2) All the procedures related to animal handling were in strict accordance with NIH guidelines and IACUC approved protocols. Briefly, the spine was taken out and split into two halves from the middle line after sacrificing the mice by decapitation. […] The DRG neurons were minced with fine scissors and incubated at 35° C. for 50 min. […] Finally the cells were dispersed onto poly-1-ornithine-coated cover slips and maintained in a modified Krebs solution with streptomycin sulfate (0.2 mM), Penicillin G Sodium (0.3 mM), and Gentamycin (0.1 mM) at 21° C. […] All experiments were performed at room temperature (around 21° C.). Whole-cell currents were recorded using a MultiClamp 700B amplifier and analyzed offline with pCLAMP10.4 software (Molecular Devices, LLC, Sunnyvale Calif., USA). […] The internal solution was composed (in mM) of 125 CsCl, 10 HEPES (acid), 10 EGTA (ethylene glycol tetraacetic acid), 1 CaCl2, 1 MgCl2, 4 MgATP and 0.3 […] 7.3-7.4 adjusted with CsOH; osmolality verified as 295 mOsm/kg). Since the sodium ions were absent in the external solution, tetrodoctoxin was not needed. […] To record sodium (Na^+) currents in DRG neurons, the external solution used the modified Krebs solution specified above. […] To record potassium currents in DRG neurons, the external solution used the modified Kreb's solution specified above. The internal solution was composed (in mM) of 65 KCl, 80 KF, 5 KOH, 10 EGTA, 2 MgATP (pH 7.3-7.4 adjusted with KOH). Recording electrodes were fabricated using a P-87 puller (Sutter Instrument Co., Novato, Calif., USA). […] All reagents were purchased from Sigma unless specified otherwise. […] Selectivity among the three subtypes of the Cav3 T-type channel, and off-target effects on other key ion channels of the representative example compounds are presented in Table 2. Sodium and potassium channels in the rodent DRG neurons were recorded and tested as described above. The human ether-a-go-go-related gene (hERG) encodes the rapidly activating potassium channel (IKr) contributing to the repolarization of the cardiac action potential. The blockade of hERG can lead to a QT prolongation in the electrocardiogram known as long QT syndrome (Sanguinetti, et al., 1995). Therefore the representative example compounds in Table 2 were tested against the hERG channel.

The test system of a further series is DRG ion channels K+. The series is described as follows: Potassium currents in DRG neurons, patch clamp. The class given is cell-based, rodent. To be noted: Table 2. The procedure:
as §2

The target in another series is T1, Cav3.1 (Homo sapiens, UniProt O43497).
T1 construct: expressed in transfected cells; host or cells: HEK-293, tetracycline inducible expression system (Invitrogen)
The series is described as follows: Whole-cell patch clamp of T-type Cav3.1 channel expressed in HEK293 cells. The class given is cell-based. To be noted: Table 2. The procedure:
Cav3.1, Cav3.2 or Cav3.3 channels were expressed in human embryonic kidney (HEK)-293 cells using a tetracycline inducible expression system (Invitrogen). Cells were maintained in 25 cm^2 tissue culture flasks at 37° C., 5% CO2, and 100% relative humidity in D-MEM/F12 (Dulbecco's Modified Eagle Medium/Nutrient Mixture F-12; Gibco) supplemented with fetal bovine serum (FBS, 10% v/v), sodium pyruvate (0.5 mM, Gibco), penicillin-streptomycin (100 U/mL, 100 μg/mL) and Geneticin® Selective antibiotic (G418; 0.5 mg/mL). Cells were detached from the flask base using a non-enzymatic cell dissociation solution (Cellstripper, Corning), removed and re-seeded on to poly-D-lysine coated glass coverslips in 35 mm dishes.
Whole-cell voltage clamp recordings were performed on rat or mouse DRG neurons within 2 days after acutely dissociation or cultured HEK293 cells expressing T-type channels (encoded by Cav3.1, Cav3.2 or Cav3.3 channels). All experiments were performed at room temperature (around 21° C.). Whole-cell currents were recorded using a MultiClamp 700B amplifier and analyzed offline with pCLAMP10.4 software (Molecular Devices, LLC, Sunnyvale Calif., USA). […] Since the sodium ions were absent in the external solution, tetrodoctoxin was not needed. Calcium currents were recorded at a holding potential of −100 mV and then depolarized to −30 mV for 100 ms to activate either Cav3.1, Cav3.2, or Cav3.3 expressed in HEK cells. An interpulse interval of 10 seconds allowed the channel recovery from inactivation, and achieved stable current recordings. To record sodium (Na^+) currents in DRG neurons, the external solution used the modified Krebs solution specified above. The internal solution was composed (in mM) of 120 CsF, 10 HEPES, 11 EGTA, 1 CaCl2, 1 MgCl2, 10 TEA-Cl, 4 MgATP and 0.3 MgGTP (pH 7.3-7.4 adjusted with CsOH). […] To record potassium currents in DRG neurons, the external solution used the modified Kreb's solution specified above. The internal solution was composed (in mM) of 65 KCl, 80 KF, 5 KOH, 10 EGTA, 2 MgATP (pH 7.3-7.4 adjusted with KOH). Recording electrodes were fabricated using a P-87 puller (Sutter Instrument Co., Novato, Calif., USA). The tip of resistance was 3-4 MQ in bath and the series resistance was less than 10 MΩ after whole cell configuration. All reagents were purchased from Sigma unless specified otherwise. Test compounds were usually applied via a rapid solution exchange system with 8 fine polyplastic tubings (100 μm, OD) glued in a holder in parallel and located closely to the recorded cells. The current responses were normalized to the control, percent inhibition was calculated and sigmoidal dose-response curves were generated using XLFit (IDBS, Surrey, UK) or Prism (GraphPad Software, La Jolla, Calif., US) to calculate IC50 values and Hill slopes using the following equation Y=Bottom+(Top−Bottom)/(1+10^((Log EC50−X)[…])).

In series [3] the target is Cav2.2 (N-type Ca channel) (Homo sapiens, UniProt Q00975). Nature of the series: Patch clamp of Cav2.2 N-type Ca channel. The conditions noted are these: Table 2. The class given is cell-based.
Where [4] appears, read: read-out: Human Liver Microsomes Clint (μL/min/mg protein).
Where [5] appears, read: read-out: Human Liver Microsomes t1/2.

SMILES strings stand for the structures. pIC50: −log10 of the molar value. Read-outs that look alike come from different tables or passages of the source.

Sequence of Cav2.2 (N-type Ca channel) (Q00975 whole entry): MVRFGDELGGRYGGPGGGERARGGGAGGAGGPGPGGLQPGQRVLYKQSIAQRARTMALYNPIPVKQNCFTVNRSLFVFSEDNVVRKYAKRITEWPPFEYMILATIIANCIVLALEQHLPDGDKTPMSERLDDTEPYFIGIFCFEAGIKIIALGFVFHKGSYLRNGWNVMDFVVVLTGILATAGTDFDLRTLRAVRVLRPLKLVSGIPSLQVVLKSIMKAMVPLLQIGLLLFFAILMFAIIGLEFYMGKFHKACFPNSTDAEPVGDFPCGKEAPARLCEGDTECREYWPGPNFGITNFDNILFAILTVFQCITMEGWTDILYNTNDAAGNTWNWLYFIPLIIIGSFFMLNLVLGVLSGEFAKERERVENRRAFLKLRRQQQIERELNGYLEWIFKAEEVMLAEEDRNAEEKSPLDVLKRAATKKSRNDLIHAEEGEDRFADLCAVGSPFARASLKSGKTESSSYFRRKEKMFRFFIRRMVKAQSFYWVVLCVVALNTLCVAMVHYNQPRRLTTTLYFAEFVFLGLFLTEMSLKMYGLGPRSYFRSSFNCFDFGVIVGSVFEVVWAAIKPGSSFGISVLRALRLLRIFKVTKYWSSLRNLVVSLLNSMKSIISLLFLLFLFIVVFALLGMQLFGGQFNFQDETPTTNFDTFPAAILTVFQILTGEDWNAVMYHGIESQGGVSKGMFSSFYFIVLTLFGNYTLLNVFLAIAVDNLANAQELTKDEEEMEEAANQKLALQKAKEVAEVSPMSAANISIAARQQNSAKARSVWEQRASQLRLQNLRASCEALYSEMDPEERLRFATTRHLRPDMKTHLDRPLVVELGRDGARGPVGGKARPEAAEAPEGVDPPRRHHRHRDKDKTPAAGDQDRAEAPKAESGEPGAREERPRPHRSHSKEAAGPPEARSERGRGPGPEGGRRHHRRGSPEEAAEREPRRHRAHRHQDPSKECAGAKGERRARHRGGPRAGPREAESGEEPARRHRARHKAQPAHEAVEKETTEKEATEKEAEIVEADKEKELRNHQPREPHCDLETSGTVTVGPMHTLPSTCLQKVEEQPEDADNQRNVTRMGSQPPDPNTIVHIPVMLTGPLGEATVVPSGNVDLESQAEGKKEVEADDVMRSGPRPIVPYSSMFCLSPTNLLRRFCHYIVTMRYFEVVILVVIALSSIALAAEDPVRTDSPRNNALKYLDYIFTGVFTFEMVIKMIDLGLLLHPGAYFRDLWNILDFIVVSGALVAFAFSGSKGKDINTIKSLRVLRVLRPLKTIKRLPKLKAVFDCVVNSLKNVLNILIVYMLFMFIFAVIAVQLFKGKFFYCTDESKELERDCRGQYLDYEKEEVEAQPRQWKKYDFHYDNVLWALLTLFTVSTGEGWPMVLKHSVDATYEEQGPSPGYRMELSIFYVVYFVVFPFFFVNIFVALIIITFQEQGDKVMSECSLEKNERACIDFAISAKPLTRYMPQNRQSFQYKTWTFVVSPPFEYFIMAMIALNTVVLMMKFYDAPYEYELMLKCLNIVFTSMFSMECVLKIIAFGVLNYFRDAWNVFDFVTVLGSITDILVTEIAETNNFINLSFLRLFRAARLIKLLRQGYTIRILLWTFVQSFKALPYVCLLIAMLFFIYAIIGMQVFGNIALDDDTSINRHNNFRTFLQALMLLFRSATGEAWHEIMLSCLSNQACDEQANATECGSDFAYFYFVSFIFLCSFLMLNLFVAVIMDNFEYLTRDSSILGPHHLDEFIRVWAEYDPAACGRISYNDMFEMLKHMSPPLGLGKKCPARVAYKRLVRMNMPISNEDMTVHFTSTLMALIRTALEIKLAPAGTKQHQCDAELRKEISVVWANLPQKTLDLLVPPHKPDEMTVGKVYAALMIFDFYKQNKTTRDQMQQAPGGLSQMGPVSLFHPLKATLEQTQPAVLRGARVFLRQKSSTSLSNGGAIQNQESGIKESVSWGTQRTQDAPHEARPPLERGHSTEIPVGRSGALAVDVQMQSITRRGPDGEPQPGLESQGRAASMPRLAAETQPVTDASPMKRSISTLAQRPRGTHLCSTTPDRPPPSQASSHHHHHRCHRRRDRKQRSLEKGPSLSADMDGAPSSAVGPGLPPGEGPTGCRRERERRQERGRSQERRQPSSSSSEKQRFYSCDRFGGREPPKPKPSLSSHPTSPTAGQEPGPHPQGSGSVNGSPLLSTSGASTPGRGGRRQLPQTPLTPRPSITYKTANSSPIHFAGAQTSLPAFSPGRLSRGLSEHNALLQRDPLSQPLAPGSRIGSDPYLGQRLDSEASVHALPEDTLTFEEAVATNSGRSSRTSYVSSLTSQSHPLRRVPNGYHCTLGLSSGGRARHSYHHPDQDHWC
Sequence of Cav2.2 (N-type Ca channel) (P54289 25-1103 partner): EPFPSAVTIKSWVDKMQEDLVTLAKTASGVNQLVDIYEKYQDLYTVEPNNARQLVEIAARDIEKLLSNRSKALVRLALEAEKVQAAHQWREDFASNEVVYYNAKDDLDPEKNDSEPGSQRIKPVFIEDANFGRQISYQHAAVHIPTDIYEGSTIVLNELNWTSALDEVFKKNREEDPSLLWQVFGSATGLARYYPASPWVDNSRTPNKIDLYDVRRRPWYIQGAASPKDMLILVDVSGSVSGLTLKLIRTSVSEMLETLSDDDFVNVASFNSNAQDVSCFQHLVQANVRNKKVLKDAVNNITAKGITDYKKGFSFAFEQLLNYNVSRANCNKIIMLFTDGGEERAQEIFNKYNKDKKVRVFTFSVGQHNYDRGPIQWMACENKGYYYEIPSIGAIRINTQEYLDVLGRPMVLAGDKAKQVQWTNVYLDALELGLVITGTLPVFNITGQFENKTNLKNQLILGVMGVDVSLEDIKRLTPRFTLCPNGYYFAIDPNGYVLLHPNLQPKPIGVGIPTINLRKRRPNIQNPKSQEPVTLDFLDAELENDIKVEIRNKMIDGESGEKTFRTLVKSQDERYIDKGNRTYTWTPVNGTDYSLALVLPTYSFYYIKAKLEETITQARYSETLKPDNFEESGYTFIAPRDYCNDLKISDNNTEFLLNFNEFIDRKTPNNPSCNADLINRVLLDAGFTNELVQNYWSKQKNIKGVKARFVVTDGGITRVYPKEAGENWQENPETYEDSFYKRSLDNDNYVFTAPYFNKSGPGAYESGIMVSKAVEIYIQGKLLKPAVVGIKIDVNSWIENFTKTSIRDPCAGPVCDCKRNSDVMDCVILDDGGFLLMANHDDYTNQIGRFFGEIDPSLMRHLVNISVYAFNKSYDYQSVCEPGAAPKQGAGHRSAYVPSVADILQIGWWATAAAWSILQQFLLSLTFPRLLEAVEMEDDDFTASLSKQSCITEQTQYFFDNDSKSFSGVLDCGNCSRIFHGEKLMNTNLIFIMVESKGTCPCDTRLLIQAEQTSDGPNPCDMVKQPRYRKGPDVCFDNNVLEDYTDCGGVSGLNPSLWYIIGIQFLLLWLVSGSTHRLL
Sequence of Cav2.2 (N-type Ca channel) (Q08289 whole entry partner): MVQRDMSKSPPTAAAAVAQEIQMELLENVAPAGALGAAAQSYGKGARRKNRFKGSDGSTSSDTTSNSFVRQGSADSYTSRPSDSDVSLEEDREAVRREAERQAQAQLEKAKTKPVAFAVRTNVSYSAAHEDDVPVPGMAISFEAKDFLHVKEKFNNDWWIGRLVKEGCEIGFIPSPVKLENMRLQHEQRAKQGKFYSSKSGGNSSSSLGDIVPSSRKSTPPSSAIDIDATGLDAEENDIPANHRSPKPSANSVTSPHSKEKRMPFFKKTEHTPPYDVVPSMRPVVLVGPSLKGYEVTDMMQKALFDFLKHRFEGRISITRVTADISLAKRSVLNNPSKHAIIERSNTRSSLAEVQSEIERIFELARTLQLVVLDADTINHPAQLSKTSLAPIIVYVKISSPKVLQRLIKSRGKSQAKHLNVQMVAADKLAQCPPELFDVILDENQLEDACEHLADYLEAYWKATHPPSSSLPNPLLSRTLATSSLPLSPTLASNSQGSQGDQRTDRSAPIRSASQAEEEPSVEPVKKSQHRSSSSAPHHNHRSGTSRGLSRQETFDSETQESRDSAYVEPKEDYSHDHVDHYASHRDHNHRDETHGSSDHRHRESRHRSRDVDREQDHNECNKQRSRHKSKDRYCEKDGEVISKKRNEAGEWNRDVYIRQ

Turning to `CC(C)(C)NC(=O)CN1CCC2(CC1)CC2NC(=O)c1cc(F)cc(Cl)c1` (single isomer, unassigned) [Example 128, (S)—N-(6-(2-(tert-Butylamino)-2-oxoethyl)-6-azaspiro[2.5]octan-1-yl)-3-chloro-5-fluorobenzamide or (R)—N-(6-(2-(tert-Butylamino)-2-oxoethyl)-6-azaspiro[2.5]octan-1-yl)-3-chloro-5-fluorobenzamide], the half-life in series [1] turned out to be 6.08 h. In addition, the microsomal CLint in series [1] stood at 1.9 µL/min/mg. The compound also registered a recovery in series [2] of 90.4%. In series [2], the fraction unbound is 0.242. The pIC50 was less than 4.00 with DRG ion channels Na+, less than 4.00 in the series with DRG ion channels K+, 7.22 against Cav3.1 and less than 5.00 in series [3].

For the compound `CC(C)(C)CCN1C[C@@H]2[C@@H](CNC(=O)c3cc(Cl)cc(Cl)c3)[C@@H]2C1` [ML218, 3,5-Dichloro-N-[[(1α,5α,6-exo,6α)-3-(3,3-dimethylbutyl)-3-azabicyclo[3.1.0]hex-6-yl]methyl]benzamide, reference compound], the microsomal CLint in series [1] (setting [4]) turned out to be 1.1 µL/min/mg. In addition, the half-life in series [1] (setting [5]) was determined as 10.5 h. The same compound yielded a recovery in series [2] of 94.9%. The fraction unbound in series [2] is 0.108. Further, the pIC50 in the series on DRG ion channels Na+ is 4.25; in the series with DRG ion channels K+, 4.10; at Cav3.1 it was 6.85; in series [3], 4.68.

As to `CC(C)(C)NC(=O)CN1CCC(CNC(=O)c2cc(F)cc(Cl)c2)CC1` [Z944, reference compound], the microsomal CLint in series [1] (setting [4]) is 5.5 µL/min/mg. The half-life in series [1] (setting [5]) is 2.1 h. Moreover, the recovery in series [2] was found to be 91.1%. Also, the fraction unbound in series [2] was 0.287. Also, the pIC50 is less than 4.52 in the series with DRG ion channels Na+, less than 4.52 in the series on DRG ion channels K+, 6.96 on Cav3.1 and less than 4.52 in series [3].

Values taken from patent US10562857B2 (AFASCI, Inc., priority 2015, dated 2020).
